Measurements taken from patent US10793563B2, “GCN2 inhibitors and uses thereof” (Merck Patent GmbH, priority 2018, dated 2020).
Where two headings read alike, the source gives them in different places.

Tests used:
GCN2 kinase = GCN2 kinase (Homo sapiens (Human), UniProt Q9P2K8); assay: GCN2 Enzyme Inhibition Assay (Transcreener ADP2 fluorescence polarization); type: biochemical; conditions: 280 μM ATP, 200 μM (RS)7 peptide, 4 nM GCN2, 25° C.
Summary of the method: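 At 25 °C, GCN2 kinase (typical final concentration 4 nM) and (RS)7 peptide in Tris-HCl pH 7.5 buffer with MgCl2, NaCl and DTT were preincubated with compound for 10 min, then ATP was added for a 1 h reaction. ADP was read by FP with antibody/Alexa633 tracer. Non-linear tight-binding analysis gave IC50 and apparent Ki.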

[1] = target: intracellular GCN2 (phosphorylation of the GCN2 substrate eIF2α) (Homo sapiens (Human), UniProt Q9P2K8); assay: GCN2 Cellular Inhibition Assay (AlphaScreen SureFire P-eIF2α Ser51, borrelidin-treated U2OS cells); type: cell-based; conditions: 10 μM borrelidin, 1 h, phosphorylated eIF2α Ser51, read-out: GCN2 Biomarker (IC50)
Sequence of intracellular GCN2 (phosphorylation of the GCN2 substrate eIF2α) (Q9P2K8 whole entry): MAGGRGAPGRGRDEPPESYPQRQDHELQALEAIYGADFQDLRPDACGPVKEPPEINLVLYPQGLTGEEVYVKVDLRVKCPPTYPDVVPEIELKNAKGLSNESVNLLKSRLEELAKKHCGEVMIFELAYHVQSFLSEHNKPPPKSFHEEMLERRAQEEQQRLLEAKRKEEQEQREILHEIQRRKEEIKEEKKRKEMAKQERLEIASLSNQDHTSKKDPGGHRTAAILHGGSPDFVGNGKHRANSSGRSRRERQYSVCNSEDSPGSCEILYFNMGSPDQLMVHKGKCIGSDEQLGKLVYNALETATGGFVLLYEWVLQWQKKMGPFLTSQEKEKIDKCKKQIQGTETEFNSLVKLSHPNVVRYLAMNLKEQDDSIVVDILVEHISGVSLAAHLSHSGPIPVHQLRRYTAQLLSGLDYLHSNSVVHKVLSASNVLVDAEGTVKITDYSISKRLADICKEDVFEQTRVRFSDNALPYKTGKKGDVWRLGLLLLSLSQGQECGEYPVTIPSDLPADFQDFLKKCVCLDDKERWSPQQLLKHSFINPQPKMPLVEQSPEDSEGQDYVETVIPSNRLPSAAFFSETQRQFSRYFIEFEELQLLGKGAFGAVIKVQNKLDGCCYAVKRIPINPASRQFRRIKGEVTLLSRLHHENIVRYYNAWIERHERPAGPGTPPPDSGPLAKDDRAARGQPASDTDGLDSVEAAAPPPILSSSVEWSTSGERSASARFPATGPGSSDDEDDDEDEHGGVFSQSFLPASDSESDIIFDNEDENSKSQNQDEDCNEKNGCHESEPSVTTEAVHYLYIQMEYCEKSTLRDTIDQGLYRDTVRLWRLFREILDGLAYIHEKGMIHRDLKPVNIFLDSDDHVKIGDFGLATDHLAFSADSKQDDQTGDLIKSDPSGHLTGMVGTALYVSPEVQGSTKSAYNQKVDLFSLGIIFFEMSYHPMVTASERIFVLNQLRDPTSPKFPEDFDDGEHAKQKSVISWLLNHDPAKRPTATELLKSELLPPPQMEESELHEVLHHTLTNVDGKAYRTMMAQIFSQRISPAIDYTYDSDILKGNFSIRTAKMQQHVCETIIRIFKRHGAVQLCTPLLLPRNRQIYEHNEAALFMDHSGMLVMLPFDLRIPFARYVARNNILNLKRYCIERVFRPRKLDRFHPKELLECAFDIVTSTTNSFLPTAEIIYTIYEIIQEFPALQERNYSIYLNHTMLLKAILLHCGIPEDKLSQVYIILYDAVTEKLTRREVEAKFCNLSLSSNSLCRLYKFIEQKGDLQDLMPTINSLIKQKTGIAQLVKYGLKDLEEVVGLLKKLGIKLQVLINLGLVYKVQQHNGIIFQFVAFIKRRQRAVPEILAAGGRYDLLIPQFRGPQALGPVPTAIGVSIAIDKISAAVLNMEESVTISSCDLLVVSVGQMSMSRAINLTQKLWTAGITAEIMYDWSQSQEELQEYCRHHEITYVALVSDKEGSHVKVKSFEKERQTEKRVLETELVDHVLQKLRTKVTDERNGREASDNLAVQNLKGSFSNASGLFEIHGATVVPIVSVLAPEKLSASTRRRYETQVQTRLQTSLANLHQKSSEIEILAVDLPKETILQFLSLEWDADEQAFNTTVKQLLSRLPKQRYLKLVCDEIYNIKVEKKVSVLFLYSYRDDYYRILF
Summary of the method: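 Phospho-eIF2α (Ser51) measured by AlphaScreen SureFire in lysates of U2OS cells stimulated 1 h at 37 °C with 10 μM borrelidin alongside compound, 4-fold dilutions from 40 μM. Inhibition expressed as percent relative to borrelidin-alone controls.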

[2] = tested on: primary human pan T-cells; assay: Human IL-2 Assay for GCN2 Inhibition (IL-2 secretion from T cells in low amino acid condition); type: cell-based; conditions: IL-2 secretion from human T cells stimulated with anti-CD3/CD28 in low amino acid condition, ELISA; for EC50: read-out: IL2/T-cell EC50
Description: Tumor microenvironment is profoundly immuno-suppressive. This may be attributed to the depletion of amino acids (like arginine and tryptophan) which triggers the activation of GCN2 in immune cells, including T cell and myeloid cells. In T cells, activation of GCN2 leads to reduce effector functions of CD8 T cells and induction and/or maintenance of immuno-suppressive T-regs. Inhibition of that immuno-suppressive response by GCN2 inhibitors enables an anti-cancer immune response by activating effector T-cells. Herein we describe an in-vitro system we established using human T-cells stimulated in low amino acid condition in order to engage the GCN2 biology. The method described involves the modulation of IL-2 levels secreted by human T cells in responses to the GCN2 inhibitors disclosed herein.
Amino acid-free RPMI was reconstituted with all but one of the amino acids found in standard RMPI (e.g. Arginine, Tryptophan), 10% charcoal-stripped fetal bovine serum, 100 Units/mL penicillin and 0.1 mg/mL streptomycin. Primary human pan T-cells were isolated using Pan T Cell Isolation Kit, human (MACS Miltenyi biotech Cat # Order no. 130-096-535) from apheresis cones and 5×104 pan T-cells per well. The purified T cells are seeded in Nunc™ 96-Well Polystyrene Round Bottom Microwell Plates (the cells are rested in No TRP media in a 15 ml falcon tube in the incubator for 30-45 minutes while titrations for tryptophan and the GCN2 inhibitor compound are made) A plate matrix was developed to titrate both a GCN2 inhibitor and the amino acid of interest ranging from “No Amino Acid” condition, up to the concentration found in the regular RPMI media (20 μM for TRP and 950 μM for Arginine). The cells were incubated for 30 min at 37° C. with the GCN2 inhibitor and then stimulated with 5×104 anti-CD3/CD28 Dynabeads® per well. After 96 hours of incubation the IL-2 level in the supernatant were measured using ELISA (R&D systems Cat # DY202 (Human IL-2 DuoSet ELISA). Data were plotted in GraphPad Prism software and EC50 is calculated.

Sequence of GCN2 kinase (Q9P2K8 whole entry): as above

Ki (GCN2 kinase; Ki(app))	IC50 [1]	EC50 ([2]; Homo sapiens, T-cell, 96 h)	IC50 (GCN2 kinase)	EC50 ([2]; 96 hours)	IL2/T-cell EC50 ([2]; 96 hours)	Compound
–	< 500 nM	< 100 nM	–	100 to 500 nM	–	C[C@@H]1C[C@H](c2cn[nH]c2)CN(c2nccc(-c3cnc4ccc(C(F)(F)F)cn34)n2)C1 [I-136, 3-(2-((3R,5R)-3-Methyl-5-(1H-pyrazol-4-yl)piperidin-1-yl)pyrimidin-4-yl)-6-(trifluoromethyl)imidazo[1,2-a]pyridine]
–	< 500 nM	–	10 to 100 nM	–	− (“−” for not active)	C[C@@H]1C[C@H](N=S(C)(C)=O)CN(c2ccnc(-c3cnc4cc(F)c(Cl)cn34)n2)C1 [I-191, (((3 S, 5R)-1-(2-(6-chloro-7-fluoroimidazo[1,2-a]pyridin-3-yl)pyrimidin-4-yl)-5-methylpiperidin-3-yl)imino)dimethyl-λ6-sulfanone]
–	< 500 nM	> 500 nM	10 to 100 nM	–	− (“−” for not active)	C[C@H]1C[C@@H](N=S(C)(C)=O)CN(c2ccnc(-c3cnc4ccc(C(F)(F)F)cn34)n2)C1 (stereo in doubt) [I-123, Dimethyl(((3R,5S)-5-methyl-1-(2-(6-(trifluoromethyl)imidazo[1,2-a]pyridin-3-yl)pyrimidin-4-yl)piperidin-3-yl)imino)-λ6-sulfanone]
–	< 500 nM	> 500 nM	10 to 100 nM	–	–	C[C@H]1CN(c2nccc(-c3cnc4ccc(C(F)(F)F)cn34)n2)C[C@H](c2cn[nH]c2)O1 [I-134, (2S,6S)-2-methyl-6-(1H-pyrazol-4-yl)-4-(4-(6-(trifluoromethyl)imidazo[1,2-a]pyridin-3-yl)pyrimidin-2-yl)morpholine]
–	< 500 nM	> 500 nM	10 to 100 nM	–	–	C[C@H]1C[C@@H](N=S(C)(C)=O)CN(c2ccnc(-c3cnc4ccc(Cl)cn34)n2)C1 (stereo in doubt) [I-128, (((3R,5S)-1-(2-(6-chloroimidazo[1,2-a]pyridin-3-yl)pyrimidin-4-yl)-5-methylpiperidin-3-yl)imino)dimethyl-λ6-sulfanone]
–	< 500 nM	100 to 500 nM	< 10 nM	–	–	CC1CCC(C(N)=O)CN1c1ccnc(-c2cnc3ccc(C(F)(F)F)cn23)n1 (stereo not drawn) [I-200, 6-methyl-1-(2-(6-(trifluoromethyl)imidazo[1,2-a]pyridin-3-yl)pyrimidin-4-yl)piperidine-3-carboxamide]
–	500 to 5000 nM	< 100 nM	–	–	–	Cc1[nH]ncc1[C@@H]1CN(c2nccc(-c3cnc4ccc(C(F)(F)F)cn34)n2)C[C@H](C)O1 [I-116]
–	< 500 nM	> 500 nM	10 to 100 nM	–	–	Cc1n[nH]nc1[C@@H]1C[C@H](C)CN(c2ccnc(-c3cnc4ccc(C(F)(F)F)cn34)n2)C1 [I-409, 3-(4-((3S,5R)-3-methyl-5-(5-methyl-2H-1,2,3-triazol-4-yl)piperidin-1-yl)pyrimidin-2-yl)-6-(trifluoromethyl)imidazo[1,2-a]pyridine]
–	< 500 nM	100 to 500 nM	< 10 nM	–	–	C[C@H]1C[C@@H](C(N)=O)CN(c2ccnc(-c3cnc4ccc(C(F)(F)F)cn34)n2)C1 [I-148, (3R,5S)-5-methyl-1-(2-(6-(trifluoromethyl)imidazo[1,2-a]pyridin-3-yl)pyrimidin-4-yl)piperidine-3-carboxamide]
–	–	100 to 500 nM	< 10 nM	–	–	Cc1n[nH]cc1C1CN(c2nccc(-c3cnc4ccc(Cl)cn34)n2)CC(C)O1 (stereo not drawn) [I-160, 4-(4-(6-chloroimidazo[1,2-a]pyridin-3-yl)pyrimidin-2-yl)-2-methyl-6-(3-methyl-1H-pyrazol-4-yl)morpholine]
–	–	100 to 500 nM	–	–	–	C[C@H]1CN(c2ccnc(-c3cnc4ccc(C(F)(F)F)cn34)n2)C[C@@H](C(N)=O)O1 [I-562, (2S,6S)-6-methyl-4-(2-(6-(trifluoromethyl)imidazo[1,2-a]pyridin-3-yl)pyrimidin-4-yl)morpholine-2-carboxamide]
–	–	100 to 500 nM	–	–	–	Cc1[nH]ncc1[C@H]1CN(c2ccnc(-c3cnc4ccc(Cl)cn34)n2)C[C@@H](C)O1 [I-561, (2R,6S)-4-(2-(6-chloroimidazo[1,2-a]pyridin-3-yl)pyrimidin-4-yl)-2-methyl-6-(5-methyl-1H-pyrazol-4-yl)morpholine]

Further lines, the compound ahead of its results:

Compound	Ki (GCN2 kinase; Ki(app))	IC50 [1]	EC50 ([2]; Homo sapiens, T-cell, 96 h)	IC50 (GCN2 kinase)	EC50 ([2]; 96 hours)	IL2/T-cell EC50 ([2]; 96 hours)
NC(=O)[C@H]1CCCN(c2ccnc(-c3cnc4ccc(Cl)cn34)n2)C1 [I-102, (S)-1-(2-(6-chloroimidazo[1,2-a]pyridin-3-yl)pyrimidin-4-yl)piperidine-3-carboxamide]	< 10 nM	< 500 nM	100 to 500 nM	–	–	–
C[C@H]1CN(c2nccc(-c3cnc4ccc(C(F)(F)F)cn34)n2)[C@@H](C)C(c2cn[nH]c2)N1 (stereo partly drawn) [I-170, 3-(2-((2S,5S)-2,5-dimethyl-3-(1H-pyrazol-4-yl)piperazin-1-yl)pyrimidin-4-yl)-6-(trifluoromethyl)imidazo[1,2-a]pyridine]	–	< 500 nM	100 to 500 nM	10 to 100 nM	–	–
C[C@H]1C[C@@H](c2cn[nH]c2)CN(c2nccc(-c3cnc4ccc(C(F)(F)F)cn34)n2)C1 [I-137, 3-(2-((3S,5S)-3-Methyl-5-(1H-pyrazol-4-yl)piperidin-1-yl)pyrimidin-4-yl)-6-(trifluoromethyl)imidazo[1,2-a]pyridine]	–	< 500 nM	100 to 500 nM	–	–	–
NC(=O)[C@H]1CN(c2ccnc(-c3cnc4ccc(C(F)(F)F)cn34)n2)CCN1C1CC1 [I-323, (R)-1-cyclopropyl-4-(2-(6-(trifluoromethyl)imidazo[1,2-a]pyridin-3-yl)pyrimidin-4-yl)piperazine-2-carboxamide]	–	500 to 5000 nM	> 500 nM	< 10 nM	–	–
C[C@@H]1C[C@H](N=S(C)(C)=O)CN(c2nccc(-c3cnc4ccc(C(F)F)cn34)n2)C1 [I-499, (((3 S,5R)-1-(4-(6-(difluoromethyl)imidazo[1,2-a]pyridin-3-yl)pyrimidin-2-yl)-5-methylpiperidin-3-yl)imino)dimethyl-λ6-sulfanone]	–	< 500 nM	> 500 nM	< 10 nM	–	–
FC(F)(F)c1ccc2ncc(-c3nccc(N4CCN(CC5CCOCC5)C(c5cn[nH]c5)C4)n3)n2c1 (stereo not drawn) [I-354, 3-(4-(3-(1H-pyrazol-4-yl)-4-((tetrahydro-2H-pyran-4-yl)methyl)piperazin-1-yl)pyrimidin-2-yl)-6-(trifluoromethyl)imidazo[1,2-a]pyridine]	–	< 500 nM	100 to 500 nM	< 10 nM	–	–
C[C@H]1CN(c2nccc(-c3cnc4ccc(C(F)(F)F)cn34)n2)C[C@@H](c2cn[nH]c2)O1 [I-126, (2S,6R)-2-methyl-6-(1H-pyrazol-4-yl)-4-{4-[6-(trifluoromethyl)imidazo[1,2-a]pyridin-3-yl]pyrimidin-2-yl}morpholine]	–	< 500 nM	100 to 500 nM	< 10 nM	–	–
C[C@H]1[C@H](c2cn[nH]c2)N(CC2(C)COC2)CCN1c1ccnc(-c2cnc3ccc(C(F)(F)F)cn23)n1 [I-482, 3-(4-((2 S,3 S)-2-methyl-4-((3-methyloxetan-3-yl)methyl)-3-(1H-pyrazol-4-yl)piperazin-1-yl)pyrimidin-2-yl)-6-(trifluoromethyl)imidazo[1,2-a]pyridine]	–	–	> 500 nM	10 to 100 nM	–	–
NC(=O)[C@H]1CCCN(c2ccnc(-c3cnc4cc(F)c(Cl)cn34)n2)C1 [I-558, (S)-1-(2-(6-chloro-7-fluoroimidazo[1,2-a]pyridin-3-yl)pyrimidin-4-yl)piperidine-3-carboxamide]	–	–	100 to 500 nM	–	–	–
